Tested on: human keratinocyte cell (KAC Co., Ltd.: KER110)
Assay: Cell proliferation test (Cell Counting Kit-8) in TGP culturing substrate
Format: cell-based
Conditions: 7 days culture, control = 100%, p < 0.01 (Dunnett)
Method: human keratinocyte cell (KAC Co., Ltd.: KER110)
the composition of the present disclosure comprising the polymer compound (TGP in Preparation Example 1) and oligopeptide of the present disclosure.
Frozen human keratinocyte cells (KAC Co., Ltd.: KER110) were dissolved in warm water at 37° C., suspended in EpiLife Medium (Thermo Fisher Scientific, Inc.: MEPI500CA) to which Human Keratinocyte Growth Supplement (HKGS) (Thermo Fisher Scientific, Inc.: S0015) was added, seeded in a 25 cm^2 flask, and cultured at 37° C. in an atmosphere containing 5% CO2.
The cultured cells were washed with DPBS (Thermo Fisher Scientific, Inc.: 14190144), and a trypsin solution (Thermo Fisher Scientific, Inc.: 12604013) was added to the cultured cells to recover cells and was centrifuged at 1,000 rpm for three minutes. After the centrifugation, supernatant was removed. A cell suspension obtained by adding a culture solution to a cell sediment was seeded in a 25 cm^2 flask and subcultured at 37° C. in an atmosphere containing 5% CO2.
The tripeptide in Preparation Example 3 was dissolved in a culture medium to prepare six samples having concentrations of 1 µM, 3 µM, 10 µM, 30 µM, 100 µM, and 1000 µM. A control includes only a culture medium.
The polymer compound (TGP in Preparation Example 1) of the present disclosure is added into a 48-well plate and freeze-dried. 120 µL of the six samples of the above concentrations and the control culture medium were added to the respective wells, and each mixture was dissolved with cooling at 4° C. overnight.
30 µL of a cell suspension recovered through the same procedure as the subculture operation was seeded in the polymer compound of the present disclosure in the 48-well plate and gelled at 37° C. for 30 minutes in an atmosphere containing 5% CO2. Then, 300 µL of the six samples of the above concentrations and control culture medium were layered and cultured at 37° C. in an atmosphere containing 5% CO2.
After culturing for 7 days, 250 µL of culture supernatant was removed, 60 µL of Cell Counting Kit-8 (Doujin Kagaku Co., Ltd.) was added and the mixture was reacted overnight at 37° C. in an atmosphere containing 5% CO2. 80 µL of the supernatant of an obtained reaction product was dispensed into a 96-well plate. This supernatant was measured with a microplate reader at a measurement wavelength of 450 nm to evaluate cell proliferation.
The cell proliferation rates of 1 µM, 3 µM, 10 µM, 30 µM, 100 µM, and 1000 µM samples were compared with that of a control, and the results are shown in Table 1 below.

## CC[C@H](C)[C@H](NC(=O)[C@@H]1CCCN1)C(=O)NCC(=O)O (racemic) [Preparation Example 3, prolyl-isoleucyl-glycine]
1 µM tripeptide in TGP substrate
  Cell Proliferation Rates: 114%
3 µM tripeptide in TGP substrate
  Cell Proliferation Rates: 116%
10 µM tripeptide in TGP substrate
  Cell Proliferation Rates: 118%
30 µM tripeptide in TGP substrate
  Cell Proliferation Rates: 126%
100 µM tripeptide in TGP substrate
  Cell Proliferation Rates: 126%
1000 µM tripeptide in TGP substrate
  Cell Proliferation Rates: 128%
